Measured values reported in patent US7427625B2, “Substituted thiatriazaacenaphthylene-6-carbonitrile kinase inhibitors” (Janssen Pharmaceutica, N.V., priority 2006, dated 2008).

Experiments:
Aurora-A = target: T1, Aurora-A (Mus musculus, UniProt P97477); assay: Aurora-A Screening Assay; format: biochemical, murine
T1 construct: followed by the full length protein encoding the murine Aurora-A; polyhistidine (N); made in house; host or cells: sf9 insect cells
T1 sequence (P97477 1-395): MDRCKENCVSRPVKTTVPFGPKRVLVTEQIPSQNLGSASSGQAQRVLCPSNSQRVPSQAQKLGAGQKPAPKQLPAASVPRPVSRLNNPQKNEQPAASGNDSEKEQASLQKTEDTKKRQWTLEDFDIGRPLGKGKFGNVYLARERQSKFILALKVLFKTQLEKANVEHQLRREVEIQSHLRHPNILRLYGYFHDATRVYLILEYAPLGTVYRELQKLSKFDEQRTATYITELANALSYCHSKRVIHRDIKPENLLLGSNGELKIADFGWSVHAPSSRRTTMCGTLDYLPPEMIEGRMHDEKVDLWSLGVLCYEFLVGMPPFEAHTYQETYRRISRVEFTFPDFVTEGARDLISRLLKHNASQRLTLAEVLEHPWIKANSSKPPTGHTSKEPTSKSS

HER-2 = target: T2, HER-2 (Homo sapiens, UniProt P04626); assay: HER-2 Kinase Assay; format: biochemical
T2 construct: the nucleotides encoding amino acids 679 to 1255 of HER-2; purchased Proqinase (Freiburg, Germany)
T2 sequence (P04626 679-1255): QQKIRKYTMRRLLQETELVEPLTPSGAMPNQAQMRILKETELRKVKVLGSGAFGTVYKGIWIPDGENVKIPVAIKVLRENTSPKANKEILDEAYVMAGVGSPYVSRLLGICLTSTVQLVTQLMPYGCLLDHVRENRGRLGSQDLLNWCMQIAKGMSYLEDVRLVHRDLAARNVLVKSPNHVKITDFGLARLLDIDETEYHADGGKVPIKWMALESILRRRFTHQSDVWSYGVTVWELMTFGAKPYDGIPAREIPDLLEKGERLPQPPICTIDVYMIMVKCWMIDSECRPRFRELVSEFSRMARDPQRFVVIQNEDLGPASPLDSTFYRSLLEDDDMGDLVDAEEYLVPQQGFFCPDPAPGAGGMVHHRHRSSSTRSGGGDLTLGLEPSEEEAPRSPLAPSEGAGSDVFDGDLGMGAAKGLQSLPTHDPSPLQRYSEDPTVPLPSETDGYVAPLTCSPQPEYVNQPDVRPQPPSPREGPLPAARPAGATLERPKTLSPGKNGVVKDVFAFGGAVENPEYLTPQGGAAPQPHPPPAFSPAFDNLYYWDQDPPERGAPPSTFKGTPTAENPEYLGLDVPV
Outline: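 GST-HIS6-thrombin fusion of HER-2 residues 679–1255, assayed with biotinylated polyGluTyr, 1 μM ATP plus γ-33P-ATP, Mg2+, Mn2+ and vanadate in Hepes pH 7.5 for 1 h at 30 °C. Incorporation read by streptavidin Flashplate scintillation counting; IC50 values, or % inhibition at 1 μM.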

[1] = tested on: HeLa cervical adenocarcinoma; assay: Cell Proliferation Inhibition Assay (14C-thymidine incorporation), HeLa; format: cell-based; conditions: Homo sapiens
Procedure: The ability of a test compound to inhibit unregulated cell proliferation was determined by measuring incorporation of ^14C-labelled thymidine into newly synthesized DNA within cell lines derived from carcinomas originating from several tissues. Accordingly, the anti-proliferative effect of a compound on cells with a variety of phenotypes may be determined.
Carcinoma cell lines include those such as HeLa cervical adenocarcinoma (American Type Culture Collection (ATCC), Virginia, Cat. #CCL-2), A375 malignant melanoma (ATCC CRL-1619), SK-OV-3 ovarian adenocarcinoma (ATCC HTB-77), HCT-116 colon carcinoma (CCL-247), PC-3 prostate adenocarcinoma (ATCC CRL-1435), and MDA-MB-231 (Xenogen Corp.)
The carcinoma cells were trypsinized and counted. The cells (3000-8000 count) were added to each well of a 96-well CytoStar tissue culture treated scintillating microplate (Amersham #RPNQ0160) in complete medium (100 μL) and the plate was then incubated in complete medium for 24 hrs at 37° C. in an […] atmosphere containing 5% CO2. Test compound (1 μL) in 100% DMSO was added to the plate test-wells with DMSO only added to control-wells. The plate was incubated in complete medium for a second 24 hr period at 37° C. in an atmosphere containing 5% CO2.
An aliquot of a solution of Methyl ^14C-thymidine ([…]) (NEN #NEC568 or Amersham #CFA532) and complete medium (20 uL to provide 0.2 μCi/well) was then added to each well and the plate was incubated for a third 24 hr period at 37° C. in an atmosphere containing 5% CO2. The plate contents were then discarded, the plate was washed twice with PBS (200 μL) and then PBS (200 μL) was added to each well. The plate was sealed and the degree of methyl ^14C-thymidine incorporation was quantified on a Packard Top Count.

IC50 (Aurora-A) | IC50 (HER-2) | IC50 [1] | inhibition at 1 µM (Aurora-A; test concentration of 1 μM, read-out: Aurora-A percent inhibition) | inhibition at 1 µM (HER-2; test concentration of 1 μM, read-out: HER-2 percent inhibition) | SMILES
> 100 µM | 0.0836 µM | > 100 µM |  |  | COc1cc(NC(=O)c2sc3ncc(C#N)c4c3c2NC(=O)N4c2ccc(Oc3ccccc3)cc2)ccc1CN1CCOCC1 [Cpd 45, 6-cyano-4-oxo-5-(4-phenoxy-phenyl)-4,5-dihydro-3H-1-thia-3,5,8-triaza-acenaphthylene-2-carboxylic acid (3-methoxy-4-morpholin-4-ylmethyl-phenyl)-amide]
13.3 µM | 7.16 µM |  |  |  | CN1CCC(NC(=O)c2sc3ncc(C#N)c4c3c2NC(=O)N4c2c(Cl)ccc3c2OCO3)CC1 [Cpd 10, 5-(5-chloro-benzo[1,3]dioxol-4-yl)-6-cyano-4-oxo-4,5-dihydro-3H-1-thia-3,5,8-triaza-acenaphthylene-2-carboxylic acid (1-methyl-piperidin-4-yl)-amide]
> 100 µM | > 100 µM |  |  |  | CCOC(=O)c1sc2nc(O)c(C#N)c3c2c1NC(=O)N3c1ccncc1 [Cpd 14, 6-cyano-7-hydroxy-4-oxo-5-pyridin-4-yl-4,5-dihydro-3H-1-thia-3,5,8-triaza-acenaphthylene-2-carboxylic acid ethyl ester]
~10 µM | 5.55 µM |  |  |  | CN1CCN(CCc2ccc(NC(=O)c3sc4ncc(C#N)c5c4c3NC(=O)N5c3c(Cl)ccc4c3OCO4)cc2)CC1 [Cpd 12, 5-(5-chloro-benzo[1,3]dioxol-4-yl)-6-cyano-4-oxo-4,5-dihydro-3H-1-thia-3,5,8-triaza-acenaphthylene-2-carboxylic acid {4-[2-(4-methyl-piperazin-1-yl)-ethyl]-phenyl}-amide]
> 1 µM | > 10 µM |  |  |  | Cc1nc2sc(C(=O)Nc3ccc(CN4CCOCC4)cc3)c3c2c(c1C#N)N(c1c(Cl)ccc2c1OCO2)C(=O)N3 [Cpd 9, 5-(5-chloro-benzo[1,3]dioxol-4-yl)-6-cyano-7-methyl-4-oxo-4,5-dihydro-3H-1-thia-3,5,8-triaza-acenaphthylene-2-carboxylic acid (4-morpholin-4-ylmethyl-phenyl)-amide]
> 100 µM | > 10 µM | > 10 µM |  |  | N#Cc1cnc2sc(C(=O)Nc3ccc(CCN4CCCCC4)cc3)c3c2c1N(c1ccc(Oc2ccccc2)cc1)C(=O)N3 [Cpd 48, 6-cyano-4-oxo-5-(4-phenoxy-phenyl)-4,5-dihydro-3H-1-thia-3,5,8-triaza-acenaphthylene-2-carboxylic acid [4-(2-piperidin-1-yl-ethyl)-phenyl]-amide]
6.47 µM | ~100 µM |  |  |  | N#Cc1c(N2CCOCC2)nc2sc(C(=O)Nc3ccc(CN4CCOCC4)cc3)c3c2c1N(c1c(Cl)ccc2c1OCO2)C(=O)N3 [Cpd 8, 5-(5-chloro-benzo[1,3]dioxol-4-yl)-6-cyano-7-morpholin-4-yl-4-oxo-4,5-dihydro-3H-1-thia-3,5,8-triaza-acenaphthylene-2-carboxylic acid (4-morpholin-4-ylmethyl-phenyl)-amide]
> 1 µM | 2.91 µM |  |  |  | N#Cc1cnc2sc(C(=O)Nc3ccc(CCN4CCCCC4)cc3)c3c2c1N(c1c(Cl)ccc2c1OCO2)C(=O)N3 [Cpd 11, 5-(5-chloro-benzo[1,3]dioxol-4-yl)-6-cyano-4-oxo-4,5-dihydro-3H-1-thia-3,5,8-triaza-acenaphthylene-2-carboxylic acid [4-(2-piperidin-1-yl-ethyl)-phenyl]-amide]
> 1 µM | 0.134 µM | > 10 µM |  |  | CC(C)(C)OC(=O)NC1CCN(Cc2ccc(NC(=O)c3sc4ncc(C#N)c5c4c3NC(=O)N5c3c(Cl)ccc4c3OCO4)cc2)CC1 [Cpd 46, [1-(4-{[5-(5-chloro-benzo[1,3]dioxol-4-yl)-6-cyano-4-oxo-4,5-dihydro-3H-1-thia-3,5,8-triaza-acenaphthylene-2-carbonyl]-amino}-benzyl)-piperidin-4-yl]-carbamic acid tert-butyl ester]
> 10 µM | > 100 µM |  |  |  | CCOC(=O)c1sc2nc(N3CCOCC3)c(C#N)c3c2c1NC(=O)N3c1c(Cl)ccc2c1OCO2 [Cpd 7, 5-(5-chloro-benzo[1,3]dioxol-4-yl)-6-cyano-7-morpholin-4-yl-4-oxo-4,5-dihydro-3H-1-thia-3,5,8-triaza-acenaphthylene-2-carboxylic acid ethyl ester]
> 10 µM | 13.5 µM | > 100 µM |  |  | CN(C)C1CCN(C(=O)c2sc3ncc(C#N)c4c3c2NC(=O)N4c2c(Cl)ccc3c2OCO3)CC1 [Cpd 41, 5-(5-chloro-benzo[1,3]dioxol-4-yl)-2-(4-dimethylamino-piperidine-1-carbonyl)-4-oxo-4,5-dihydro-3H-1-thia-3,5,8-triaza-acenaphthylene-6-carbonitrile]
> 10 µM | > 1 µM | > 100 µM |  |  | CN(C)C1CCN(Cc2ccc(NC(=O)c3sc4ncc(C#N)c5c4c3NC(=O)N5c3c(Cl)ccc4c3OCO4)cc2)CC1 [Cpd 42, 5-(5-chloro-benzo[1,3]dioxol-4-yl)-6-cyano-4-oxo-4,5-dihydro-3H-1-thia-3,5,8-triaza-acenaphthylene-2-carboxylic acid [4-(4-dimethylamino-piperidin-1-ylmethyl)-phenyl]-amide]
> 1 µM | 1.23 µM |  |  |  | COC1CCN(Cc2ccc(NC(=O)c3sc4ncc(C#N)c5c4c3NC(=O)N5c3c(Cl)ccc4c3OCO4)cc2)CC1 [Cpd 18, 5-(5-chloro-benzo[1,3]dioxol-4-yl)-6-cyano-4-oxo-4,5-dihydro-3H-1-thia-3,5,8-triaza-acenaphthylene-2-carboxylic acid [4-(4-methoxy-piperidin-1-ylmethyl)-phenyl]-amide]
 |  |  | 9% | 49% | CC1CCN(Cc2ccc(NC(=O)c3sc4ncc(C#N)c5c4c3NC(=O)N5c3c(Cl)ccc4c3OCO4)cc2)CC1 [Cpd 19, 5-(5-chloro-benzo[1,3]dioxol-4-yl)-6-cyano-4-oxo-4,5-dihydro-3H-1-thia-3,5,8-triaza-acenaphthylene-2-carboxylic acid [4-(4-methyl-piperidin-1-ylmethyl)-phenyl]-amide]
5.93 µM | > 1 µM |  |  |  | N#Cc1cnc2sc(C(=O)Nc3ccc(CCN4CCOCC4)cc3)c3c2c1N(c1c(Cl)ccc2c1OCO2)C(=O)N3 [Cpd 13, 5-(5-chloro-benzo[1,3]dioxol-4-yl)-6-cyano-4-oxo-4,5-dihydro-3H-1-thia-3,5,8-triaza-acenaphthylene-2-carboxylic acid [4-(2-morpholin-4-yl-ethyl)-phenyl]-amide]
> 10 µM | > 10 µM |  |  |  | COc1cc(N2C(=O)Nc3c(C(=O)Nc4ccc(CN5CCOCC5)cc4)sc4ncc(C#N)c2c34)c(Cl)cc1Cl [Cpd 5, 6-cyano-5-(2,4-dichloro-5-methoxy-phenyl)-4-oxo-4,5-dihydro-3H-1-thia-3,5,8-triaza-acenaphthylene-2-carboxylic acid (4-morpholin-4-ylmethyl-phenyl)-amide]
10.6 µM | 5.35 µM |  |  |  | N#Cc1cnc2sc(C(=O)Nc3ccc(CN4CCOCC4)cc3)c3c2c1N(c1c(Cl)ccc2c1OCO2)C(=O)N3 [Cpd 4, 5-(5-chloro-benzo[1,3]dioxol-4-yl)-6-cyano-4-oxo-4,5-dihydro-3H-1-thia-3,5,8-triaza-acenaphthylene-2-carboxylic acid (4-morpholin-4-ylmethyl-phenyl)-amide]
> 100 µM | > 100 µM |  |  |  | CCOC(=O)c1sc2nc(-c3cc(F)ccc3Cl)c(C#N)c3c2c1NC(=O)N3c1ccncc1 [Cpd 15, 7-(2-chloro-5-fluoro-phenyl)-6-cyano-4-oxo-5-pyridin-4-yl-4,5-dihydro-3H-1-thia-3,5,8-triaza-acenaphthylene-2-carboxylic acid ethyl ester]
> 10 µM | ~100 µM |  |  |  | COc1cc(N2C(=O)Nc3c(C(=O)Nc4ccc(CCN5CCOCC5)cc4)sc4ncc(C#N)c2c34)c(Cl)cc1Cl [Cpd 6, 6-cyano-5-(2,4-dichloro-5-methoxy-phenyl)-4-oxo-4,5-dihydro-3H-1-thia-3,5,8-triaza-acenaphthylene-2-carboxylic acid [4-(2-morpholin-4-yl-ethyl)-phenyl]-amide]
